Patent publication US7495028B2, “R-bambuterol, its preparation and therapeutic uses” (priority 2002, dated 2009)
Counter-ions that a name gives are not always drawn. Marks after values point to notes of the source that are not given here.

Assays:
[1] = tested on: isolated guinea pig lung strip; test: Bronchodilating effect on isolated guinea pig lung strip pre-contracted by histamine; format: cell-based
Description: Test method: Guinea pigs (Dunlin-Hartley, ca. 400 g) were used. After anesthesia, the chest was opened and sections of lung tissue about 3 mm in width, were dissected quickly from a lower lobe with the longitudinal axis of the strip cut parallel to the bronchus. The strips were further divided into two thin strips with approximate dimension of 20×3×3 mm. With threads attached to each end, strips were mounted in organ baths containing aerated Krebs solution at 37° C. A load of between 0.5-1.0 g force was applied by gentle stretching, and the tissue was allowed to equilibrate for 60 min with the solution changed at 20 min intervals. The lung strips were pre-contracted by 10^−5 M histamine, then an equal volume of solution containing R-bambuterol or racemic bambuterol was added cumulatively into the organ bath. The contractions of the lung strips were measured isometrically with force-displacement transducers and recorded.
Based on the pharmacokinetic studies of racemic bambuterol hydrochloride, about 50% of absorbed bambuterol is hydrolyzed to terbutaline, the active-parent form, in plasma. There is little cholinesterase in the lung strip preparation, so neither the test compound nor racemic bambuterol has significant effects. In order to test the compound of invention in vitro on isolated guinea-pig lung tissue, R-bambuterol and racemic bambuterol were administrated orally to guinea pigs at a dose of 8 mg/kg. Four hours later, blood was collected from the animals, and the serum containing the active parent form of the test compounds were prepared. The concentration of the active parent form, i.e. terbutaline, in serum measured using BPLC, was 64-70 ng/ml in the animal treated with R-bambuterol and 62-69 ng/ml in the animal treated with racemic bambuterol. The serum containing the active form of test compound was then added into the organ in a certain volume, so that the final concentration of the active forms of test compounds was 0.25 ng/ml in the organ bath. Concentration-response relationships were obtained using a cumulative dose schedule by adding the same volume of the serum into the organ bath. The test using the serum containing the active form of racemic bambuterol was done in parallel with the test compound in the same manner as described above.

rats = test: Cardiovascular effects in anesthetized rats; format: in vivo; settings: both, Sprague Dawley, rat, in vivo, 20 min
Description: Test method: Rats (Sprague Dawley, 250-300 g) were randomized into two groups (n=6, equal sexes). After anesthesia, plastic tubing was introduced into a carotid artery of each animal and connected to pressure transducers to record mean artery pressure (MBP) and heart rate (HR). Another tube was introduced into the left ventricular chamber via the another carotid artery and connected to a pressure transducer. Left ventricular systolic pressure (LVSP) and the first order of differential of LVSP (dp/dt) as an index for inotropic effects were recorded. R-Bambuterol and racemic bambuterol hydrochloride were dissolved in saline and administrated intravenously at 30 mg/kg to each animal. The HR, MBP and Max dp/dt were measured before treatment (control) and after the treatments when the maximum response occurred, and 20 min after treatment as indication of recovery.

hyperlipidemia mice = test: Lipid lowering effects in Tyloxapol-induced hyperlipidemia mice; format: in vivo; settings: for TG lipid level: plasma 24 hours after Tyloxapol
Description: Test method: Male and […] mice, Kunming strain, 35 each, weight 18-22 grams, were used. Food and water were available ad libitum. The animals were randomized into 7 groups (n=10). Groups of animals were administered orafly, via a stomach tube, vehicle (distilled water, two groups), R-bambuterol hydrochloride (10 mg/kg and 5 mg/kg), racemic bambuterol hydrochloride (10 mg/kg and 5 mg/kg) and simvastatin (10 mg/kg) once a day for four days. With the exception of one vehicle—treated group (as control), Tyloxapol (400 mg/kg, Sigma Chemical Co.) was injected into the peritoneal cavity of the mice of all groups immediately after the last treatment on the fourth day in order to induce hyperlipidemia. All the animals were fasted overnight prior to the injection of Tyloxapol. Blood samples were collected by cardiac puncture 24 hours after the injection of Tyloxapol. The blood samples were processed to plasma, and concentration of triglycerides (TG), cholesterol (CHO), high density lipoprotein (HDL), low density lipoprotein (LDL) and very low density lipoprotein (VLDL) were measured with an autoblood analyzer (Olympic, Japan).

[2] = tested on: sensitized conscious guinea pigs exposed to aerosol ovalbumin; test: Protection against allergic bronchospasm in ovalbumin-sensitized conscious guinea pigs; format: in vivo, guinea pig
Description: Test method: Guinea pigs (Dunkin-Hartley strain, 200±10 g, equal sexes) were used in this study. Ovalbumin (5%) solution was injected into guinea pigs subcutaneously and intraperitoneally to sensitize the animals. Male and female sensitized animals were kept separately for 14 days, and food and water was available ad libitum. On day 14 after sensitization, animals were randomized into groups of 8 each. The animals were treated orally with saline (control) or various concentrations of R-bambuterol or racemic bambuterol in saline. Four hours after the treatment, each animal was restrained in a glass chamber. After stabilization the animal was exposed to an aerosol of ovalbumin generated by a nebulizer from a 5% solution of ovalbumine at a rate of 0.5 ml/min for a period of 15 seconds. The animal was removed from the chamber, and the behavior of the animal was monitored. The number of the sensitized animals which collapsed were counted, and the latency time, i.e. the time from the exposure to aerosol ovalbumin to the collapse of the animal, was recorded.

[3] = tested on: conscious guinea pigs exposed to aerosol histamine; test: Protection against histamine-evoked asthma in conscious guinea pigs; format: in vivo, guinea pig; settings: for Collapsed n: 8 animals; for Potency relative to racemic bambuterol: bronchospasmolytic / protective effect, hydrochloride; for % collapse / Latency time of collapse: dose-response, four hours before exposure
Description: Test methods: Guinea pigs (Dunki-Hartley strain, 190±30 g) were fasted overnight but given water ad libidum. The animals were restrained individually in a glass chamber and exposed to aerosol histamine generated by a nebulizer from a 0.2% aqueous solution of histamine under constant pressure at dose of 0.5 ml/min for a period of 15 sec. The animal was removed from the chamber, and its behavior was monitored. A sign of collapse and the latency time from exposure to collapse were recorded. Only the animals with latency time less than 120 sec, as an indication of sensitive to histamine, were chosen for later experiments. The animals chosen were allowed to recover completly by resting for 24 hours before experiments. Test compounds and racemic bambuterol hydrochloride were dissolved in saline.
Time course of the effect of test compounds: R-Bambuterol hydrochloride or racemic bambuterol hydrochloride at 2, 4 and 8 mg/kg, and vehicle alone, were administered to the guinea pigs orally via a stomach tube. Exposure of treated animals to aerosol histamine (as above) was done at 1, 4 and 24 hours after treatment. For each experimental group, there were a total of 8 animals with equal number of both sexes, and no repeated exposure was made for individual experimental animals.
Study of dose-response of test compounds: Four hours before the exposure to aerosol histamine, animals were randomized into groups (n=8, equal male and female), and given R-bambuterol hydrochloride or racemic bambuterol in doses of 0.25, 0.5, 1.0, 2.0, 4.0 and 8.0 mg/kg, and vehicle control, orally via a stomach tube. The numbers of collapsed animal as a result of asthmatic reaction to aerosol histamine were counted, and the latency times were recorded. Both of these parameters were used as quantitative measurements of the protective effects of the treatments on bronchospasm evoked by aerosol histamine.

[4] = Tyl + 10 mg (10 mg/kg oral once a day for four days)

In the case of `CC(C)(C)NCC(O)c1cc(O)cc(O)c1` (racemic) [Active form of RS-bambuterol, racemic terbutaline], the “Percent of Relaxation” value ([1]; 0.25 ng/ml active form in organ bath, 10^−5 M histamine pre-contraction) is reported as 7.6 ± 0.8%, the “Percent of Relaxation” value ([1]; 0.50 ng/ml active form) is reported as 10.8 ± 2.1% and the “Percent of Relaxation” value ([1]; 0.75 ng/ml active form) is reported as 26.5 ± 3.4%. For the same compound, the “Percent of Relaxation” value ([1]; 1.00 ng/ml active form) was 39.6 ± 4.0% and the “Percent of Relaxation” value ([1]; 1.25 ng/ml active form) was 45.7 ± 6.7%.
`CN(C)C(=O)Oc1cc(OC(=O)N(C)C)cc([C@@H](O)CNC(C)(C)C)c1` [R-bambuterol, R-Bambuterol hydrochloride] was tested, and the “HR 20 min after Δ, % of Control” value (rats) was 3.7%, the “Maxdp/dt 20 min after Δ, % of control” value (rats) was 5.0% and the CHO lipid level (hyperlipidemia mice; Tyl + 5 mg) was 189 ± 83 mg/dL. The HDL lipid level (hyperlipidemia mice; Tyl + 5 mg) was 42 ± 27 mg/dL, the LDL lipid level (hyperlipidemia mice; Tyl + 5 mg) was 34 ± 15 mg/dL and the VLDL lipid level (hyperlipidemia mice; Tyl + 5 mg) was 50 ± 26 mg/dL. The TG lipid level (hyperlipidemia mice; Tyl + 5 mg (5 mg/kg oral once a day for four days)) was 323 ± 176 mg/dL, the CHO lipid level (hyperlipidemia mice; Tyl + 10 mg) was 119 ± 16 mg/dL and the HDL lipid level (hyperlipidemia mice; Tyl + 10 mg) was 53.3 ± 6.7 mg/dL. It also gave an LDL lipid level (hyperlipidemia mice; Tyl + 10 mg) of 29 ± 5 mg/dL, a VLDL lipid level (hyperlipidemia mice; Tyl + 10 mg) of 35 ± 7 mg/dL and a TG lipid level (hyperlipidemia mice; [4]) of 105 ± 18 mg/dL. The “% collapsed” value ([2]; 1 mg/kg oral) was 63%, the Latency time ([2]; 1 mg/kg oral) was 193 ± 30 s and the Number collapsed ([2]; 1 mg/kg oral (n = 8), four hours before aerosol ovalbumin) was 5. The “% collapsed” value ([2]; 4 mg/kg oral) was 25%, the Latency time ([2]; 4 mg/kg oral) was 293 ± 27 s and the Number collapsed ([2]; 4 mg/kg oral (n = 8)) was 2. The “% collapsed” value ([2]; 8 mg/kg oral) was 0%, the Latency time ([2]; 8 mg/kg oral) was >360*# sec and the Collapsed % ([3]; 2 mg/kg oral, 1st Hour) was 50.0* %. The Latency ([3]; 2 mg/kg oral, 1st Hour) was 231 ± 70 s, the Collapsed n ([3]; 2 mg/kg oral, 1st Hour) was 4.0 and the Collapsed % ([3]; 2 mg/kg oral, 4th Hour) was 25.0* %. It also gave a Latency ([3]; 2 mg/kg oral, 4th Hour) of 295 ± 65 s, a Collapsed n ([3]; 2 mg/kg oral, 4th Hour) of 2.0 and a Collapsed % ([3]; 2 mg/kg oral, 24th Hour) of 62.5%. For the same compound, the Latency ([3]; 2 mg/kg oral, 24th Hour) was 202 ± 67 s, the Collapsed n ([3]; 2 mg/kg oral, 24th Hour) was 5.0 and the Collapsed % ([3]; 4 mg/kg oral, 1st Hour) was 37.5* %. For the same compound, the Latency ([3]; 4 mg/kg oral, 1st Hour) was 258 ± 71 s, the Collapsed n ([3]; 4 mg/kg oral, 1st Hour) was 3.0 and the Collapsed % ([3]; 4 mg/kg oral, 4th Hour) was 0.0* %. It also gave a Latency ([3]; 4 mg/kg oral, 4th Hour) greater than 360 s, a Collapsed n ([3]; 4 mg/kg oral, 4th Hour) of 0.0 and a Collapsed % ([3]; 4 mg/kg oral, 24th Hour) of 50.0%. The Latency ([3]; 4 mg/kg oral, 24th Hour) was 242 ± 64 s, the Collapsed n ([3]; 4 mg/kg oral, 24th Hour) was 4.0 and the Collapsed % ([3]; 8 mg/kg oral, 1st Hour) was 25.0%. It also gave a Latency ([3]; 8 mg/kg oral, 1st Hour) of 299 ± 57 s, a Collapsed n ([3]; 8 mg/kg oral, 1st Hour) of 2.0 and a Collapsed % ([3]; 8 mg/kg oral, 4th Hour) of 0.0%. It also gave a Latency ([3]; 8 mg/kg oral, 4th Hour) greater than 360 s, a Collapsed n ([3]; 8 mg/kg oral, 4th Hour) of 0.0 and a Collapsed % ([3]; 8 mg/kg oral, 24th Hour) of 37.5%. The Latency ([3]; 8 mg/kg oral, 24th Hour) was 256 ± 72 s, the Collapsed n ([3]; 8 mg/kg oral, 24th Hour) was 3.0 and the ED50 ([3]; Cavia porcellus, 4 h, oral, four hours before aerosol histamine, read-out: ED50 (protection against collapse)) was 0.91 mg/kg. For the same compound, the “Potency relative to racemic bambuterol” value ([3]; oral) was “about twice”, the “Potency relative to racemic bambuterol” value ([3]; oral, listed as R enantiomer of bambuterol) was “about twice” and the “Potency relative to racemic bambuterol” value ([3]; oral, listed as R-Bambuterol) was “about twice”. For the same compound, the “% collapse” value ([3]; 0.25 mg/kg oral) was 87.5%, the “Latency time of collapse” value ([3]; 0.25 mg/kg oral) was 110 s and the “% collapse” value ([3]; 0.5 mg/kg oral) was 75%. For the same compound, the “Latency time of collapse” value ([3]; 0.5 mg/kg oral) was 160 s, the “% collapse” value ([3]; 1 mg/kg oral) was 50% and the “Latency time of collapse” value ([3]; 1 mg/kg oral) was 209 s. The “% collapse” value ([3]; 2 mg/kg oral) was 25%, the “Latency time of collapse” value ([3]; 2 mg/kg oral) was 295 s and the “% collapse” value ([3]; 4 mg/kg oral) was 0%. The “Latency time of collapse” value ([3]; 4 mg/kg oral) was greater than 360 s, the “% collapse” value ([3]; 8 mg/kg oral) was 0% and the “Latency time of collapse” value ([3]; 8 mg/kg oral) was greater than 360 s. For the same compound, the “Onset of protective effects after administration” value ([3]; oral 2 to 8 mg/kg) was “one”, the “Time of maximum protective effects after administration” value ([3]; oral 2 to 8 mg/kg) was 4 h and the “Dose at which full protective effect was seen” value ([3]; oral, collapse after aerosol histamine) was 4 mg/kg. The “Dose at which maximum effects on latency were seen” value ([3]; oral, latency time to collapse) was 4 mg/kg.
For `CCC(C)(C)C(=O)O[C@H]1C[C@@H](C)C=C2C=C[C@H](C)[C@H](CC[C@@H]3C[C@@H](O)CC(=O)O3)[C@H]21` [simvastatin], the CHO lipid level (hyperlipidemia mice; Tyl + 10 mg) was 176 ± 64 mg/dL, the HDL lipid level (hyperlipidemia mice; Tyl + 10 mg) was 49 ± 16 mg/dL and the LDL lipid level (hyperlipidemia mice; Tyl + 10 mg) was 42 ± 11 mg/dL. For the same compound, the VLDL lipid level (hyperlipidemia mice; Tyl + 10 mg) was 85 ± 50 mg/dL and the TG lipid level (hyperlipidemia mice; [4]) was 311 ± 187 mg/dL.
